According to US20260183281A1, “PHARMACEUTICAL COMPOSITION COMPRISING A PRMT5 INHIBITOR AND AN EGFR INHIBITOR” (APEIRON THERAPEUTICS (HONG KONG) LTD., priority 2024, published 2026):

Key:
[1] = tested on: NCI-H292 MTAP deleted cells; experiment: Cell growth inhibition (CellTiter-Glo, 144 h), single agents and combinations, CI by Calcusyn; format: cell-based; conditions: for IC20 / IC50: Homo sapiens, NCI-H292, single agent; for Max Inh %: single agent
Procedure: NCI-H292 MTAP deleted cell line was purchased from Nanjing Cobioer Biotechnology Co., Ltd. The cells were cultured in a cell culture medium containing 90% RPMI1640 and 10% fetal bovine serum at 37° C. and 5% CO2. Experiments could only be performed on cells in the logarithmic growth phase.
Adjust the cell density in complete medium and seed the cells into 96-well culture plates. Incubate the plates at 37° C. with 5% CO2. Add the two test compounds to the plates using a serial dilution scheme. Continue incubation at 37° C. and 5% CO2 for 144 h. Thaw the CellTiter-Glo (CTG) reagent and equilibrate the plates to room temperature for ˜30 min. Add an equal volume of CTG reagent to each well, shake on an orbital shaker for 5 min to lyse the cells, and allow the signal to stabilize at room temperature for 20 min. Measure luminescence on a plate reader and record the data. Data analysis:
Cell growth inhibition (%)=100−(Lum test drug−Lum culture medium control)/(Lum solvent control−Lum culture medium control)×100%
Calcusyn was used to analyze the combination index (CI) values.

[2] = tested on: human lung cancer PDX model LD1-0025-200729; experiment: In vivo pharmacodynamic study in PDX NU/NU mouse model of Osimertinib-resistant non-small cell lung cancer; set-up: species or system NU/NU mice; conditions: for Tumor volume (mm^3) Mean: each drug 10 mg/kg PO QD; for tumor growth inhibition (TGI) / statistical difference compared with the control group: each drug 10 mg/kg, PO, once daily; for tumor growth inhibition (TGI): 56-day study; for statistical difference compared with the control group: one-way ANOVA
Text: NU/NU mice, female, 6-8 weeks old, weighing approximately 18-22 g. They were purchased from Beijing Vital River Laboratory Animal Technology Co., Ltd. All experimental mice were kept in the SPF-level animal room of Xi'an LIDE and acclimated for at least 3 days in advance. The lung cancer model tumor-bearing mice were chosen. When a tumor grew to 800-1000 mm^3, the tumor was taken out under sterile conditions and passed it subcutaneously into NU/NU mice. When the average tumor volume reached about 150 mm^3 (100-200 mm^3), 18 tumor-bearing mice were chosen and randomly divided into 6 groups according to the tumor volume. The day of grouping was Day 0, and they were administered according to the following solution:
N: Number of animals; dose volume: 10 μL/g; PO: per os. Administer Osimertinib or Osimertinib solvent first, and administer compound A or compound A solvent after an interval of 1 hour.
The main purpose was to detect the growth inhibition effect or complete cure ability of the test drug compound A as a single drug or in combination with Osimertinib on the human lung cancer PDX model LD1-0025-200729.
Tumor volume and weight measurement of tumor-bearing mice: A vernier caliper was used to measure twice a week. The calculation equation for tumor volume is V=0.5 a×b^2, where a and b represent the major and minor diameters of the tumor, respectively;
Tumor growth inhibition: TGI (%)=[1−(Ti−T0)/(Vi−V0)]×100
Ti is the mean tumor volume after the start of administration in the compound group, T0 is the mean tumor volume at the first dose in the compound group, V0 is the mean tumor volume at the first dose in the vehicle control group, and Vi is the mean tumor volume after the start of administration in the vehicle control group.

[3] = administration time 0 days (grouping)

SMILES | IC20 [1] [nM] | IC50 [1] [nM] | Max Inh % [1] [%] | Tumor volume (mm^3) Mean [2, 3] [mm^3] | Tumor volume (mm^3) Mean ([2]; administration time 4 days) [mm^3] | Tumor volume (mm^3) Mean ([2]; administration time 7 days) [mm^3] | Tumor volume (mm^3) Mean ([2]; administration time 11 days) [mm^3] | Tumor volume (mm^3) Mean ([2]; administration time 14 days) [mm^3] | Tumor volume (mm^3) Mean ([2]; administration time 18 days) [mm^3] | Tumor volume (mm^3) Mean ([2]; administration time 21 days) [mm^3] | Tumor volume (mm^3) Mean ([2]; administration time 25 days) [mm^3] | Tumor volume (mm^3) Mean ([2]; administration time 28 days) [mm^3] | Tumor volume (mm^3) Mean ([2]; administration time 32 days) [mm^3] | Tumor volume (mm^3) Mean ([2]; administration time 35 days) [mm^3] | Tumor volume (mm^3) Mean ([2]; administration time 39 days) [mm^3] | Tumor volume (mm^3) Mean ([2]; administration time 42 days) [mm^3] | Tumor volume (mm^3) Mean ([2]; administration time 46 days) [mm^3] | Tumor volume (mm^3) Mean ([2]; administration time 49 days) [mm^3] | Tumor volume (mm^3) Mean ([2]; administration time 53 days) [mm^3] | Tumor volume (mm^3) Mean ([2]; administration time 56 days) [mm^3] | further results
CN(C(=O)c1ccc2nc(N)c3cncn3c2c1)[C@@H]1COc2cc(C(F)(F)F)ccc21 [Compound A, (S)-4-amino-N-methyl-N-(6-(trifluoromethyl)-2,3-dihydrobenzofuran-3-yl)imidazo[1,5-a]quinoxaline-8-carboxamide] | 10.7 | 117 | 71.2 | 155.2 | 179.8 | 205.2 | 228.6 | 251.0 | 274.5 | 271.3 | 315.2 | 321.2 | 318.3 | 308.3 | 288.3 | 266.9 | 278.7 | 281.0 | 283.7 | 287.7 | TGI (%) ([1]; Compound A 3.20 nM, Osimertinib 0 nM): 11.4%; TGI (%) ([1]; Compound A 16.0 nM, Osimertinib 0 nM): 10.8%; TGI (%) ([1]; Compound A 80.0 nM, Osimertinib 0 nM): 45.6%; TGI (%) ([1]; Compound A 400 nM, Osimertinib 0 nM): 51.8%; TGI (%) ([1]; Compound A 2000 nM, Osimertinib 0 nM): 66.6%; TGI (%) ([1]; Compound A 10000 nM, Osimertinib 0 nM): 75.1%; Tumor volume (mm^3) Mean ([2]; administration time 57 days): 288.1 mm^3; tumor growth inhibition (TGI) [2]: 85.8%; statistical difference compared with the control group [2]: statistically significant difference
C[C@H](c1ccc(C(F)(F)F)cn1)N(C(=O)c1cc2c(cc1F)nc(N)c1cncn12)C1CC1 [Compound C] | 9.6 | 49.9 | 64.6 | – | – | – | – | – | – | – | – | – | – | – | – | – | – | – | – | – | TGI (%) ([1]; Compound C 3.20 nM, Osimertinib 0.0 nM): 4.0%; TGI (%) ([1]; Compound C 16.0 nM, Osimertinib 0.0 nM): 23.7%; TGI (%) ([1]; Compound C 80.0 nM, Osimertinib 0.0 nM): 38.2%; TGI (%) ([1]; Compound C 400 nM, Osimertinib 0.0 nM): 49.5%; TGI (%) ([1]; Compound C 2000 nM, Osimertinib 0.0 nM): 61.0%; TGI (%) ([1]; Compound C 10000 nM, Osimertinib 0.0 nM): 60.4%
C=CC(=O)Nc1cc(Nc2nccc(-c3cn(C)c4ccccc34)n2)c(OC)cc1N(C)CCN(C)C [Osimertinib, reference compound] | 18.6 | 50.2 | 91.1 | 155.7 | 185.9 | 208.3 | 232.2 | 253.6 | 288.4 | 310.4 | 369.2 | 407.1 | 439.2 | 470.2 | 501.3 | 534.5 | 589.4 | 605.3 | 633.7 | 679.4 | TGI (%) ([1]; Osimertinib 4 nM, Compound A 0 nM): 16.0%; TGI (%) ([1]; Osimertinib 4.1 nM, Compound C 0 nM): 20.5%; TGI (%) ([1]; Osimertinib 12 nM, Compound A 0 nM): 13.4%; TGI (%) ([1]; Osimertinib 12.3 nM, Compound C 0 nM): 18.8%; TGI (%) ([1]; Osimertinib 37 nM, Compound A 0 nM): 35.4%; TGI (%) ([1]; Osimertinib 37.0 nM, Compound C 0 nM): 34.3%; TGI (%) ([1]; Osimertinib 111 nM, Compound A 0 nM): 70.6%; TGI (%) ([1]; Osimertinib 111.1 nM, Compound C 0 nM): 68.4%; TGI (%) ([1]; Osimertinib 333 nM, Compound A 0 nM): 81.8%; TGI (%) ([1]; Osimertinib 333.3 nM, Compound C 0 nM): 81.4%; TGI (%) ([1]; Osimertinib 1000 nM, Compound A 0 nM): 90.9%; TGI (%) ([1]; Osimertinib 1000.0 nM, Compound C 0 nM): 92.3%; Tumor volume (mm^3) Mean ([2]; administration time 57 days): 689.6 mm^3; tumor growth inhibition (TGI) [2]: 43.1%; statistical difference compared with the control group [2]: no statistically significant difference
